# Reference: patent US10597388B2, “Pyridazinone herbicides” (FMC CORPORATION, priority 2014, dated 2020)
# What was measured:
# Type in all cases: in vivo
# [1] = tested on: galium (catchweed bedstraw, Galium aparine); experiment: Test A greenhouse herbicide test, postemergence
# Procedure, shortened: (§1)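 Pot-grown plants (loam soil/sand blend), 2–10 cm tall at the one- to two-leaf stage, received postemergence sprays of formulated test chemical. After about 10 d in the greenhouse, injury was rated visually against untreated controls on a 0 (no effect) to 100 (complete control) scale.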
# [2] = tested on: blackgrass (Alopecurus myosuroides); experiment: Test A greenhouse herbicide test, postemergence
# Procedure, shortened: as §1
# [3] = tested on: nutsedge, yellow (yellow nutsedge, Cyperus esculentus); experiment: Test C greenhouse herbicide test, pre- and postemergence
# Procedure, shortened: (§2)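 Seeds sown in loam–sand blend treated preemergence; plants in peat-based medium sprayed postemergence at 2–18 cm (1- to 4-leaf stage); chemicals in non-phytotoxic solvent with surfactant. Greenhouse 13–15 d, then visual rating versus controls on 0–100 scale (0 no effect, 100 complete control).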
# [4] = tested on: velvetleaf (Abutilon theophrasti); experiment: as above
# Procedure, shortened: as §2
# [5] = tested on: ragweed (common ragweed, Ambrosia elatior); experiment: as above
# Procedure, shortened: as §2
# [6] = tested on: galium (catchweed bedstraw, Galium aparine); experiment: as above
# Procedure, shortened: as §2
# soybean (Glycine max) = experiment: as above
# Procedure, shortened: as §2
# [7] = tested on: ryegrass, Italian (Italian ryegrass, Lolium multiflorum); experiment: as above
# Procedure, shortened: as §2
# [8] = tested on: blackgrass (Alopecurus myosuroides); experiment: as above
# Procedure, shortened: as §2
# [9] = tested on: pigweed (Amaranthus retroflexus); experiment: as above
# Procedure, shortened: as §2
# [10] = tested on: barnyardgrass (Echinochloa crus-galli); experiment: as above
# Procedure, shortened: as §2
# kochia (Kochia scoparia) = experiment: Test C greenhouse herbicide test, postemergence; conditions: Postemergence
# Procedure, shortened: (§3)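 Test chemicals were applied postemergence to greenhouse plants at the 1- to 4-leaf stage (2–18 cm tall) growing in peat/vermiculite medium. After 13–15 d, injury was rated visually against untreated controls on a 0–100 scale (0 = no effect, 100 = complete control).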
# [11] = tested on: chickweed (common chickweed, Stellaria media); experiment: Test C greenhouse herbicide test, postemergence; conditions: for Plant response rating, Chickweed: Postemergence
# Procedure, shortened: as §3
# [12] = tested on: oat, wild (wild oat, Avena fatua); experiment: Test C greenhouse herbicide test, postemergence; conditions: Postemergence
# Procedure, shortened: as §3
# [13] = 125 g ai/ha, 0 to 100 scale where 0 is no effect and 100 is complete control
# [14] = 500 g ai/ha, visual rating after approx. 10 d, 0 to 100 scale (0 no effect, 100 complete control)
# [15] = Postemergence, 31 g ai/ha, scale 0 to 100 (0 no effect, 100 complete control)
# [16] = Postemergence, 125 g ai/ha, scale 0 to 100, 0 is no effect, 100 is complete control
# [17] = Postemergence, 250 g ai/ha, scale 0 to 100, 0 no effect, 100 complete control, 13 to 15 d
# [18] = Preemergence, 31 g ai/ha, scale 0 to 100, 0 is no effect, 100 is complete control
# [19] = Preemergence, 62 g ai/ha, scale 0 to 100, 0 is no effect, 100 is complete control
# [20] = Preemergence, 125 g ai/ha, scale 0 to 100, 0 is no effect, 100 is complete control
# [21] = Preemergence, 250 g ai/ha, scale 0 to 100, 0 no effect, 100 complete control
# [22] = postemergence, 62 g ai/ha, scale 0 to 100, 0 no effect, 100 complete control
# [23] = 31 g ai/ha, scale 0 to 100 (0 no effect, 100 complete control)
# [24] = 125 g ai/ha, scale 0 to 100, 0 is no effect, 100 is complete control
# [25] = 250 g ai/ha, scale 0 to 100, 0 no effect, 100 complete control, 13 to 15 d
smiles,measurement,setting,value
CCC(=O)Oc1c(C)nn(C)c(=O)c1-c1ccc(F)c2ccccc12 [Compound 113],"Plant response rating, Galium",[1]; [13],100
same,"Plant response rating, Galium",[1]; [14],100
same,"Plant response rating, Blackgrass",[2]; [13],90
same,"Plant response rating, Blackgrass",[2]; [14],90
same,"Plant response rating, Nutsedge, Yellow",[3]; [15],70
same,"Plant response rating, Nutsedge, Yellow",[3]; [16],85
same,"Plant response rating, Nutsedge, Yellow",[3]; [17],95
same,"Plant response rating, Nutsedge, Yellow",[3]; [18],55
same,"Plant response rating, Nutsedge, Yellow",[3]; [19],70
same,"Plant response rating, Nutsedge, Yellow",[3]; [20],85
same,"Nutsedge, Yellow plant response rating",[3]; [21],85
same,"Plant response rating, Velvetleaf",[4]; [15],70
same,"Plant response rating, Velvetleaf",[4]; [16],90
same,"Plant response rating, Velvetleaf",[4]; [17],98
same,"Plant response rating, Velvetleaf",[4]; [18],60
same,"Plant response rating, Velvetleaf",[4]; [19],95
same,"Plant response rating, Velvetleaf",[4]; [20],98
same,Velvetleaf plant response rating,[4]; [21],100
same,"Plant response rating, Ragweed",[5]; [15],90
same,"Plant response rating, Ragweed",[5]; [16],98
same,"Plant response rating, Ragweed",[5]; [17],100
same,"Plant response rating, Ragweed",[5]; [18],65
same,"Plant response rating, Ragweed",[5]; [19],95
same,"Plant response rating, Ragweed",[5]; [20],85
same,Ragweed plant response rating,[5]; [21],95
same,"Plant response rating, Galium",[6]; [15],95
same,"Plant response rating, Galium",[6]; [16],95
same,"Plant response rating, Galium",[6]; [17],95
same,"Plant response rating, Galium",[6]; [18],100
same,"Plant response rating, Galium",[6]; [19],90
same,"Plant response rating, Galium",[6]; [20],98
same,Galium plant response rating,[6]; [21],98
same,"Plant response rating, Soybean",soybean (Glycine max); [15],15
same,"Plant response rating, Soybean",soybean (Glycine max); [16],40
same,"Plant response rating, Soybean",soybean (Glycine max); [17],55
same,"Plant response rating, Soybean",soybean (Glycine max); [18],0
same,"Plant response rating, Soybean",soybean (Glycine max); [19],45
same,"Plant response rating, Soybean",soybean (Glycine max); [20],65
same,Soybean plant response rating,soybean (Glycine max); [21],80
same,"Plant response rating, Ryegrass, Italian",[7]; [15],90
same,"Plant response rating, Ryegrass, Italian",[7]; [16],95
same,"Plant response rating, Ryegrass, Italian",[7]; [17],95
same,"Plant response rating, Ryegrass, Italian",[7]; [18],95
same,"Plant response rating, Ryegrass, Italian",[7]; [19],95
same,"Plant response rating, Ryegrass, Italian",[7]; [20],90
same,"Ryegrass, Italian plant response rating",[7]; [21],95
same,"Plant response rating, Blackgrass",[8]; [15],15
same,"Plant response rating, Blackgrass",[8]; [16],45
same,"Plant response rating, Blackgrass",[8]; [17],60
same,"Plant response rating, Blackgrass",[8]; [18],10
same,"Plant response rating, Blackgrass",[8]; [19],50
same,"Plant response rating, Blackgrass",[8]; [20],55
same,Blackgrass plant response rating,[8]; [21],60
same,Blackgrass plant response rating,[8]; [22],25
same,"Plant response rating, Pigweed",[9]; [15],65
same,"Plant response rating, Pigweed",[9]; [16],95
same,"Plant response rating, Pigweed",[9]; [17],98
same,"Plant response rating, Pigweed",[9]; [18],70
same,"Plant response rating, Pigweed",[9]; [19],75
same,"Plant response rating, Pigweed",[9]; [20],100
same,Pigweed plant response rating,[9]; [21],100
same,"Plant response rating, Barnyardgrass",[10]; [15],25
same,"Plant response rating, Barnyardgrass",[10]; [16],35
same,"Plant response rating, Barnyardgrass",[10]; [17],45
same,"Plant response rating, Barnyardgrass",[10]; [18],10
same,"Plant response rating, Barnyardgrass",[10]; [19],35
same,"Plant response rating, Barnyardgrass",[10]; [20],65
same,Barnyardgrass plant response rating,[10]; [21],95
same,Barnyardgrass plant response rating,[10]; [22],35
same,"Plant response rating, Kochia",kochia (Kochia scoparia); [23],95
same,"Plant response rating, Kochia",kochia (Kochia scoparia); [24],95
same,"Plant response rating, Kochia",kochia (Kochia scoparia); [25],100
same,"Plant response rating, Chickweed",[11]; [23],90
same,"Plant response rating, Chickweed",[11]; [24],98
same,"Plant response rating, Chickweed",[11]; [25],100
same,Chickweed plant response rating,[11]; [22],90
same,"Plant response rating, Oat, Wild",[12]; [23],90
same,"Plant response rating, Oat, Wild",[12]; [24],90
same,"Plant response rating, Oat, Wild",[12]; [25],90
